Experimental data as given in article PMC10535741, “Styrylpyridinium Derivatives for Fluorescent Cell Imaging” (Pharmaceuticals, 2023).
Values joined by “and” are separate entries in the source; they are usually repeats but may differ in a detail not shown here. Identical values can stand only once.

Tests used:
[1] = tested on: NIH3T3 (mouse fibroblast) cell line; test: Basal cytotoxicity, neutral red uptake (NRU) assay, with LD50 estimated from IC50; format: cell-based
Procedure: The evaluation of the in vitro cytotoxicity (IC50, half maximal inhibitory concentration) of the abovementioned compounds and their structural derivatives was assessed using the standard colorimetric 3-(4,5-dimethylthiazol-2-yl)-2,5-diphenyltetrazolium bromide (MTT) assay on two monolayer tumour cell lines, namely HT-1080 (human connective tissue fibrosarcoma) and MH-22A (mouse hepatocarcinoma). Additionally, the impact of the compound on non-cancerous “normal” cells—mouse fibroblasts (NIH3T3)—was estimated in order to measure the basal toxicity (LD50, median lethal dose). The obtained results were used for investigation of the structure–activity relationships and exploration of the effect of substituents on cellular response and toxicity. The estimated LD50 gives information regarding the compound properties and could potentially be used to select promising compounds by providing a starting dose for in vivo experiments.
To assess basal cytotoxicity, the neutral red uptake (NRU) assay was conducted following a modified version of the standard protocol of Stokes’ [71], as validated by the NICEATM-ECVAM study. The NRU cytotoxicity assay determines the ability of viable cells to incorporate and bind a supravital dye, neutral red (NR).
NIH3T3 cells (9000 cells/well) were cultured in 96-well plates in DMEM medium supplemented with 5% FBS for 24 h. Subsequently, the cells were exposed to the test compounds over a range of seven concentrations (1000 µg/mL, 316 µg/mL, 100 µg/mL, 31 µg/mL, 10 µg/mL, 3.0 µg/mL, and 1.0 µg/mL) for 24 h. Untreated cells were used as a control. After the incubation period, the medium was removed from all plates and a solution of NR was added (250 µL, 0.05 mg/mL NR in DMEM 24 h pre-incubated at 37 °C and then filtered before use through a 0.22 µm syringe filter). The plates were incubated for 3 h, followed by three washes with phosphate-buffered saline (PBS). The cells were then treated with a mixture of ethanol (50%) and water (49%) supplemented with 1% acetic acid. The absorbance of NR was measured using a spectrophotometer multiplate reader (Infinite M1000; Tecan Austria GmbH, Salzburg, Austria) at 540 nm. The optical density (OD) was then calculated using the following formula: ODtreated cells×100/ODcontrol cells.
The IC50 values were calculated using the program Graph Pad Prism® 3.0.
In vitro test results were employed to estimate the starting dose for acute oral systemic toxicity tests in rodents (LD50). The LD50 value was calculated using the in vitro IC50 value and a following formula: logLD50(mM/kg)=0.439×logIC50(mM)+0.621
The value was then converted to mg/kg and the compounds classified into four toxicity categories. Category 1 (highly toxic): LD50 ≤ 5 mg/kg; Category 2 (moderately toxic): 5 < LD50 ≤ 50 mg/kg; Category 3 (slightly toxic): 50 < LD50 ≤ 300 mg/kg; Category 4 (practically non-toxic): 300 < LD50 ≤ 2000 mg/kg.

[2] = Self-assembling properties by dynamic light scattering (DLS); format: physicochemical; conditions: 0.1 mM in aqueous medium, ethanol injection, freshly prepared
Procedure: The estimation of self-assembling properties for the selected compounds was performed using dynamic light scattering (DLS) measurements. The values for the polydispersity index (PDI) and the hydrodynamic average diameter (Dav) of nanoparticles formed by compounds 6a,c–e,g were determined (with a final compound concentration of 0.1 mM in the aqueous medium). The nanoparticles were prepared by the ethanol injection method via the dissolution of the compound in ethanol and after that by the dispersion of the solution into water. The approach is rapid, simple, and can be easily scaled up. This method was previously used successfully for the preparation and characterisation of lipid-like pyridinium amphiphiles. The DLS measurements were performed for freshly prepared samples at room temperature.
The self-assembling properties of the tested compounds were estimated according to a published procedure with minor modifications. Stock solutions of the compounds were prepared in EtOH at a concentration of 1 mM. Stock solutions of the compounds (0.3 mL) were injected into 2.7 mL of deionised water with maximum stirring (IKA Vortex 2 (IKA, Staufen, Germany)) to obtain a final concentration of 0.1 mM. The DLS measurements of the nanoparticles in the aqueous solution were conducted using a Zetasizer Nano ZSP (Malvern Panalytical Ltd., Malvern, UK) instrument with Malvern Instruments Ltd. Software 8.01.4906. The measurements were performed with the following settings—medium: water; refractive index: 1.33; viscosity: 0.8872 cP; temperature: 25 °C; dielectric constant: 78.5; nanoparticles: liposomes; refractive index of materials: 1.60; detection angle: 173° wavelength: 633 nm. The obtained data were analysed using the multimodal number distribution software provided with the instrument. To ensure reproducibility, the measurements were performed in triplicate.

CCCCCCCCCCCCCCCC[n+]1ccc(C=CC=Cc2cc3c4c(c2)CCCN4CCC3)cc1.[Br-] [Compound 6e, 1-hexadecyl-4-(4-(2,3,6,7-tetrahydro-1H,5H-pyrido[3,2,1-ij]quinolin-9-yl)buta-1,3-dien-1-yl)pyridin-1-ium bromide]
times lower basal cytotoxicity than 6d ([1]; 6e versus 6d): ~ 2.8 times
basal toxicity classification in words ([1]; from estimated LD50, NIH3T3): harmful
Dav, nm (average diameter of formed nanoparticles) [2]: 118 nm and 118 ± 4 nm
PDI (polydispersity index) [2]: 0.260 ± 0.011

CCCCCCCCCCCC[n+]1ccc(C=Cc2cc3c4c(c2)CCCN4CCC3)cc1.[Br-] [Compound 6d, 1-dodecyl-4-(2-(2,3,6,7-tetrahydro-1H,5H-pyrido[3,2,1-ij]quinolin-9-yl)vinyl)pyridin-1-ium bromide]
times higher basal cytotoxicity than compound 7a ([1]; 6d versus 7a): 6.5 times
PDI (polydispersity index) [2]: 0.286 ± 0.030

CCCCCCCCCCCCCCCC[n+]1ccc(C=Cc2cc(OC)c(OC)c(OC)c2)cc1.[Br-] [Compound 6b]
times more toxic than 6a, basal toxicity [1]: 2.8 times
Basal cytotoxicity (NIH3T3) LD50 ([1]; estimated from in vitro NRU IC50 (24 h) by log LD50 = 0.439 x log IC50 + 0.621): 91 ± 6 mg/kg
Basal cytotoxicity (NIH3T3) LD50 ([1]; mouse): 0.15 mM/kg

CCCCCCCCCCCCCCCC[n+]1ccc(C=CC=Cc2ccc(OC)cc2)cc1.[Br-] [Compound 6c, 1-hexadecyl-4-(4-(4-methoxyphenyl)buta-1,3-dien-1-yl)pyridin-1-ium bromide]
Dav, nm (average diameter of formed nanoparticles) [2]: 212 nm and 212 ± 4 nm
PDI (polydispersity index) [2]: 0.218 ± 0.026

CCCCCCCCCCCC[n+]1ccc(C=Cc2cc(OC)c(OC)c(OC)c2)cc1.[Br-] [Compound 6a, 4-(3,4,5-trimethoxystyryl)-N-dodecylpyridinium bromide]
times decrease of basal toxicity of 6a compared with 6d ([1]; ratio of LD50 values): 1.5 times
PDI (polydispersity index) [2]: 0.331 ± 0.261
